According to US6953577B2, “Human methionine aminopeptidase type 3” (Pharmacia Corporation, priority 1999, dated 2005):

Experiments:
[1] = target: T1, recombinant human MetAP-3 (Homo sapiens, UniProt Q6UB28); experiment: Methionine aminopeptidase activity assay (methionine release from tripeptide, coupled L-amino acid oxidase/Amplex Red); assay type: biochemical; conditions: for Cleaved / Vmax: tripeptide as substrate of recombinant human MetAP-3
T1 construct: The coding region of hMetAP-3 was also cloned into the EcoRI/HindIII sites of the pET43a vector and expressed as a fusion protein; NusA (N, cleaved yes); 6xHis (N, cleaved yes); made in house; host or cells: E. coli Tuner (DE3)plysS, pET43a
T1 sequence (Q6UB28 20-335): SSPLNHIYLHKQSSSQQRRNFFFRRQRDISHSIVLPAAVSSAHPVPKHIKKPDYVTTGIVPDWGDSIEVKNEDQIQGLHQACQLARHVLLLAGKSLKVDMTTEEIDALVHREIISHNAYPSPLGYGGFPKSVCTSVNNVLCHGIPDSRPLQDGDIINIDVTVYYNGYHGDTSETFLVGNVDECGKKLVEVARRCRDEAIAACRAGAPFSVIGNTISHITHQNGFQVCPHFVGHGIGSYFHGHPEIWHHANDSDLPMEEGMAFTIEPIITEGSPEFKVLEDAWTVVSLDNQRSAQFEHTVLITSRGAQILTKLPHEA
Experimental: (§1) Hydrogen peroxide, produced by the L-amino acid oxidase reaction, was measured by monitoring the formation of resorufin from Amplex Red in a reaction catalyzed by of horseradish peroxidase. […] The reaction was performed in a 96-well plate format at ambient temperature using the following assay buffer: 20 mM HEPES-Na pH 7.5, 100 mM NaCl, 0.1 mM CoCl2 containing 100 μM Amplex Red, 0.15 U/ml L-amino acid oxidase, 0.5 U/ml horseradish peroxidase.
(§2) The ability of fumagillin to inhibit each of the recombinant human MetAPs was determined by adding 0.6 nM-500 μM fumagillin at the start of the reaction. The IC50 values were determined under conditions in which enzyme concentration and reaction time were linear.

MetAP-2 [2] = target: T2, MetAP-2 (Homo sapiens, UniProt P50579); conditions: cited from earlier work
Target sequence in this assay (P50579 whole entry, species assumed): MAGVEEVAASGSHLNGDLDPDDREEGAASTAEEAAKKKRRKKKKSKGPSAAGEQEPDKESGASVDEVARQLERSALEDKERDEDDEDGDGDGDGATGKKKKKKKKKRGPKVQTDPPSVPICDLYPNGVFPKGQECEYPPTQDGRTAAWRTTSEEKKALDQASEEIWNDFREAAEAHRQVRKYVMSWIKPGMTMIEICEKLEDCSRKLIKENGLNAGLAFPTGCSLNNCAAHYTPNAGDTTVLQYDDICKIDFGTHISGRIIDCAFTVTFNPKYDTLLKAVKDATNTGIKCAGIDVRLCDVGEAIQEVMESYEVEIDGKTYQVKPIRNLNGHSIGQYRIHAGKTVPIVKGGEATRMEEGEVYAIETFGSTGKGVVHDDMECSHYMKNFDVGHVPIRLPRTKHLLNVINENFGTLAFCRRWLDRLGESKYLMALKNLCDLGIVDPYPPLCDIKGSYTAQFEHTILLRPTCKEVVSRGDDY

[3] = in vivo, cited from earlier work
[4] = tested on: endothelial cell proliferation; conditions: cited from earlier work
type-1 enzyme (MetAP-1) = type-1 enzyme (MetAP-1) (Homo sapiens, UniProt P53582); conditions: cited from earlier work
MetAP-2 [5] = target: T2, MetAP-2; experiment: Methionine aminopeptidase activity assay (methionine release from tripeptide, coupled L-amino acid oxidase/Amplex Red)
Experimental: as §1, §2
Target sequence in this assay (P50579 whole entry): as the sequence (P50579 whole entry, species assumed) above

[6] = target: recombinant human MetAP-1 (Homo sapiens, UniProt P53582); experiment: as above
Experimental: as §1, §2

Row | Compound | Cleaved [1] | Vmax [1] | Binding and inhibition of MetAP-2 (in words) (MetAP-2 [2]) | Inhibition of type-1 enzyme (in words) (type-1 enzyme (MetAP-1)) | also measured
1 | CO[C@@H]1[C@H](OC(=O)NC(=O)CCl)CC[C@]2(CO2)[C@H]1[C@@]1(C)O[C@@H]1CC=C(C)C [TNP-470] | – | – | irreversibly bind and potently inhibit | but not the type-1 enzyme | Oral availability (in words) ([3]; po): lack of oral availability; Toxicity (in words) [3]: dose-limiting neurotoxicity; Potency relative to fumagillin [4]: 50 fold
2 | MEG: synthesized tripeptide evaluated as substrate for MetAP-3 | cannot cleave and No | 1.1 Abs × 1000/min | – | – | –
3 | CO[C@@H]1[C@H](OC(=O)/C=C/C=C/C=C/C=C/C(=O)O)CC[C@]2(CO2)[C@H]1[C@@]1(C)O[C@@H]1CC=C(C)C [Fumagillin, fumagillin] | – | – | irreversibly bind and potently inhibit | but not the type-1 enzyme | Inhibition of endothelial cell proliferation (in words) [4]: potent inhibitor of endothelial cell proliferation; IC50 (MetAP-2 [5]): 0.005 µM; IC50 [6]: 33 µM; Inhibition of MetAP-3 by fumagillin (in words) [1]: not inhibited by fumagillin; IC50 ([1]; read-out: Fumagillin IC50): > 500 µM
4 | CO[C@@H]1C(=O)CC[C@]2(CO2)[C@@]1(O)[C@@]1(C)O[C@@H]1CC=C(C)C [ovalicin] | – | – | – | but not the type-1 enzyme | –

Further lines, with some results ahead:

Row | Cleaved [1] | Vmax [1] | Compound | Binding and inhibition of MetAP-2 (in words) (MetAP-2 [2]) | Inhibition of type-1 enzyme (in words) (type-1 enzyme (MetAP-1)) | also measured
5 | No | 0.7 Abs × 1000/min | GGG: synthesized tripeptide evaluated as substrate for MetAP-3 | – | – | –
6 | cleaved and Yes | 134 Abs × 1000/min | MGG: synthesized tripeptide evaluated as substrate for MetAP-3 | – | – | Activity with MGG relative to MAS as substrate [1]: twice as high
